Where a name gives a salt, the structure may show the parent alone.
System: Acinetobacter baumannii ATCC17961
Test: 90% growth inhibitory concentration (IC90) determination, antimicrobial susceptibility testing
Type: cell-based
Conditions: 90% growth inhibition, Iso-Sensitest broth, OD 600 nm over 16 h, 35±2° C.; read-out: ATCC 17961 IC90
Experimental: Antimicrobial Susceptibility Testing:
90% Growth Inhibitory Concentration (IC90) Determination
The in vitro antimicrobial activity of the compounds was determined according to the following procedure:
The assay used a 10-points Iso-Sensitest broth medium to measure quantitatively the in vitro activity of the compounds against Acinetobacter baumannii ATCC17961 and ATCC17978.
Stock compounds in DMSO were serially twofold diluted (e.g. range from 50 to 0.097 μM final concentration) in 384 wells microtiter plates and inoculated with 49 μl the bacterial suspension in Iso-Sensitest medium to have a final cell concentration of ˜5×10^(5) CFU/ml in a final volume/well of 50 ul/well. Microtiter plates were incubated at 35±2° C.
Bacterial cell growth was determined with the measurement of optical density at λ=600 nm each minutes over a time course of 16 h. Growth inhibition was calculated during the logarithmic growth of the bacterial cells with determination of the concentration inhibiting 50% (IC50) and 90% (IC90) of the growth.
Table 2 provides the 90% growth inhibitory concentrations (IC90) in micromoles per liter of the compounds of present invention obtained against the strain Acinetobacter baumannii ATCC17961.

| SMILES | IC90 [nM] |
| --- | --- |
| CCc1cc(Nc2nccn3c(-c4ccc(OC(F)F)c(F)c4F)cnc23)ccc1C(=O)NCCC1CC[N+](C)(CC2CNC2)CC1 (centres unmarked) [Example 91, N-[2-[1-(azetidin-3-ylmethyl)-1-methyl-piperidin-1-ium-4-ylethyl]-4-[[3-[4-(difluoromethoxy)-2,3-difluoro-phenyl]imidazo[1,2-a]pyrazin-8-yl]amino]-2-ethyl-benzamide Diformate] | 834 |

Same assay, conditions: Acinetobacter baumannii, ATCC17961, 16 h, 90% growth inhibition, Iso-Sensitest broth, OD 600 nm over 16 h, 35±2° C.; read-out: ATCC 17961 IC90

| SMILES | IC90 [nM] |
| --- | --- |
| C[N+](C)(C)CC(=O)NCCNC(=O)c1ccc(Nc2nccn3c(-c4c[nH]nc4C(F)(F)F)cnc23)cc1Cl [Example 58, [2-[2-[[2-Chloro-4-[[3-[3-(trifluoromethyl)-1H-pyrazol-4-yl]imidazo[1,2-a]pyrazin-8-yl]amino]benzoyl]amino]ethylamino]-2-oxo-ethyl]-trimethyl-ammonium formate] | 1580 |
| CCc1cc(Nc2nccn3c(-c4ccc(OC(F)F)c(F)c4F)cnc23)ccc1C(=O)N1CCN(C(=O)C2CC[N+](C)(CC3CNC3)CC2)CC1 (centres unmarked) [Example 81, 1-(Azetidin-3-ylmethyl)-4-(4-(4-((3-(4-(difluoromethoxy)-2,3-difluorophenyl)imidazo[1,2-a]pyrazin-8-yl)amino)-2-ethylbenzoyl)piperazine-1-carbonyl)-1-methylpiperidin-1-ium 2,2,2-trifluoroacetate] | 107 |
| CCc1cc(Nc2nccn3c(-c4ccc(OC)c(F)c4F)cnc23)ccc1C(=O)NCC1CC(NC(=O)C2CC[N+](C)(CC3CNC3)CC2)C1 (centres unmarked) [Example 127, 1-(Azetidin-3-ylmethyl)-N-[3-[[[4-[[3-(2,3-difluoro-4-methoxy-phenyl)imidazo[1,2-a]pyrazin-8-yl]amino]-2-ethyl-benzoyl]amino]methyl]cyclobutyl]-1-methyl-piperidin-1-ium-4-carboxamide formate 2,2,2-trifluoroacetate (Mixed Salt)] | 258 |
| Cc1cc(Nc2nccn3c(-c4ccc(OC(F)F)cc4)cnc23)ccc1C(=O)N(C)CCC1CC[N+](C)(CCCC(=O)O)CC1 (centres unmarked) [Example 57, 4-[4-[2-[[4-[[3-[4-(Difluoromethoxy)phenyl]imidazo[1,2-a]pyrazin-8-yl]amino]-2-methylbenzoyl]-methylamino]ethyl]-1-methylpiperidin-1-ium-1-yl]butanoic acid Hydrochloride] | 2180 |
| CCc1cc(Nc2nccn3c(-c4ccc(OC(F)F)c(F)c4F)cnc23)ccc1C(=O)NCCNC(=O)C1CC[N+](C)(CC2CCNC2)CC1 (centres unmarked) [Example 102, N-[2-[[4-[[3-[4-(Difluoromethoxy)-2,3-difluoro-phenyl]imidazo[1,2-a]pyrazin-8-yl]amino]-2-ethyl-benzoyl]amino]ethyl]-1-methyl-1-(pyrrolidin-3-ylmethyl)piperidin-1-ium-4-carboxamide bis(2,2,2-trifluoroacetate)] | 223 |
| CCc1cc(Nc2nccn3c(-c4ccc(OC(F)F)c(F)c4F)cnc23)ccc1C(=O)NCCC(=O)N1CC[N+](C)(CC2CNC2)CC1 [Example 92, N-[3-[4-(Azetidin-3-ylmethyl)-4-methyl-piperazin-4-ium-1-yl]-3-oxo-propyl]-4-[[3-[4-(difluoromethoxy)-2,3-difluoro-phenyl]imidazo[1,2-a]pyrazin-8-yl]amino]-2-ethyl-benzamide bis(2,2,2-trifluoroacetate)] | 332 |
| CCc1cc(Nc2nccn3c(-c4c[nH]nc4C(F)(F)F)cnc23)ccc1C(=O)NCC1CC[N+](C)(CC2CNC2)C1 (centres unmarked) [Example 138, N-[[1-(Azetidin-3-ylmethyl)-1-methyl-pyrrolidin-1-ium-3-yl]methyl]-2-ethyl-4-[[3-[3-(trifluoromethyl)-1H-pyrazol-4-yl]imidazo[1,2-a]pyrazin-8-yl]amino]benzamide bis(2,2,2-trifluoroacetate)] | 4140 |
| Cc1cc(Nc2nccn3c(-c4ccc(OCC#N)c(F)c4F)cnc23)ccc1C(=O)N1CCN(C(=O)C[N+](C)(C)C)CC1 [Example 56, [2-[4-[4-[[3-[4-(Cyanomethoxy)-2,3-difluorophenyl]imidazo[1,2-a]pyrazin-8-yl]amino]-2-methylbenzoyl]piperazin-1-yl]-2-oxoethyl]-trimethylazanium Iodide] | 59.6 |
| CCc1cc(Nc2nccn3c(-c4ccc(Oc5ccccc5)c(F)c4F)cnc23)ccc1C(=O)NCC1CC[N+](C)(CC2CCNC2)CC1 (centres unmarked) [Example 145, 4-[[3-(2,3-Difluoro-4-phenoxy-phenyl)imidazo[1,2-a]pyrazin-8-yl]amino]-2-ethyl-N-[[1-methyl-1-(pyrrolidin-3-ylmethyl)piperidin-1-ium-4-yl]methyl]benzamide Formate] | 1780 |
| CCc1cc(Nc2nccn3c(-c4ccc(OC(F)F)c(F)c4F)cnc23)ccc1C(=O)N1CCN(C(=O)C2CC[N+](C)(CC3CCNC3)CC2)CC1 (centres unmarked) [Example 84, [4-[[3-[4-(difluoromethoxy)-2,3-difluoro-phenyl]imidazo[1,2-a]pyrazin-8-yl]amino]-2-ethyl-phenyl]-[4-[1-methyl-1-(pyrrolidin-3-ylmethyl)piperidin-1-ium-4-carbonyl]piperazin-1-yl]methanone bis(2,2,2-trifluoroacetate)] | 132 |
| CCc1cc(Nc2nccn3c(-c4ccc(OC(F)F)c(F)c4F)cnc23)ccc1C(=O)NCCCCC[N+](C)(CC1CNC1)CC1CNC1 [Example 89, Bis(azetidin-3-ylmethyl)-[5-[[4-[[3-[4-(difluoromethoxy)-2,3-difluoro-phenyl]imidazo[1,2-a]pyrazin-8-yl]amino]-2-ethyl-benzoyl]amino]pentyl]-methyl-ammonium bis(2,2,2-trifluoroacetate)] | 634 |
| CCc1cc(Nc2nccn3c(-c4ccc(OC)c(F)c4F)cnc23)ccc1C(=O)NCC1CC[N+](CC)(CC2CNC2)CC1 (centres unmarked) [Example 143, N-[[1-(Azetidin-3-ylmethyl)-1-ethyl-piperidin-1-ium-4-yl]methyl]-4-[[3-(2,3-difluoro-4-methoxy-phenyl)imidazo[1,2-a]pyrazin-8-yl]amino]-2-ethyl-benzamide Formate] | 609 |
| CCc1cc(Nc2nccn3c(-c4ccc(OC)c(F)c4F)cnc23)ccc1C(=O)NCCCCC[N+](C)(C)CC(N)=O [Example 76, Mono(N-(2-amino-2-oxoethyl)-5-(4-((3-(2,3-difluoro-4-methoxyphenyl)imidazo[1,2-a]pyrazin-8-yl)amino)-2-ethylbenzamido)-N,N-dimethylpentan-1-aminium) monoformate Monoiodide] | 27.4 |
| CCc1cc(Nc2nccn3c(-c4cn(CC#N)nc4C(F)(F)F)cnc23)ccc1C(=O)NCCCCC[N+](C)(CC(=O)O)CC1CNC1 (centres unmarked) [Example 109, Azetidin-3-ylmethyl-(carboxymethyl)-[5-[[4-[[3-[1-(cyanomethyl)-3-(trifluoromethyl)pyrazol-4-yl]imidazo[1,2-a]pyrazin-8-yl]amino]-2-ethyl-benzoyl]amino]pentyl]-methyl-ammonium Formate] | 3830 |
| CCc1cc(Nc2nccn3c(-c4ccc(OC)c(F)c4F)cnc23)ccc1C(=O)N[C@H]1C[C@@H](NC(=O)C2CC[N+](C)(CC3CNC3)CC2)C1 (some centres unmarked) [Example 126, 1-(Azetidin-3-ylmethyl)-N-[3-[[4-[[3-(2,3-difluoro-4-methoxy-phenyl)imidazo[1,2-a]pyrazin-8-yl]amino]-2-ethyl-benzoyl]amino]cyclobutyl]-1-methyl-piperidin-1-ium-4-carboxamide formate 2,2,2-trifluoroacetate (Mixed Salt)] | 111 |
| C[N+]1(CC2CCNC2)CCC(C(=O)N2CCN(C(=O)c3ccc(Nc4nccn5c(-c6ccc(OC(F)F)c(F)c6F)cnc45)cc3Cl)CC2)CC1 (centres unmarked) [Example 116, [2-Chloro-4-[[3-[4-(difluoromethoxy)-2,3-difluoro-phenyl]imidazo[1,2-a]pyrazin-8-yl]amino]phenyl]-[4-[1-methyl-1-(pyrrolidin-3-ylmethyl)piperidin-1-ium-4-carbonyl]piperazin-1-yl]methanone Formate] | 81.1 |
| COc1ccc(-c2cnc3c(Nc4ccc(C(=O)N5CCN(C(=O)[C@@H]6C[C@@H](O)C[N+]6(C)C)CC5)c(C)c4)nccn23)c(F)c1F [Example 55, (2S,4R)-2-(4-(4-((3-(2,3-Difluoro-4-methoxyphenyl)imidazo[1,2-a]pyrazin-8-yl)amino)-2-methylbenzoyl)piperazine-1-carbonyl)-4-hydroxy-1,1-dimethylpyrrolidin-1-ium Formate] | 132 |
| C[N+](C)(C)CC(=O)N1CCN(C(=O)c2ccc(Nc3nccn4c(-c5c[nH]nc5C(F)(F)F)cnc34)cc2Cl)CC1 [Example 62, [2-[4-[2-Chloro-4-[[3-[3-(trifluoromethyl)-1H-pyrazol-4-yl]imidazo[1,2-a]pyrazin-8-yl]amino]benzoyl]piperazin-1-yl]-2-oxo-ethyl]-trimethyl-ammonium Formate] | 449 |

Same assay, conditions: Acinetobacter baumannii, ATCC17961, 16 h, read-out: ATCC 17961 IC90

| SMILES | IC90 [nM] |
| --- | --- |
| CCc1cc(Nc2nccn3c(-c4ccc(OC)c(F)c4F)cnc23)ccc1C(=O)NCC1CC[N+](C)(Cc2cccnc2)CC1 (centres unmarked) [Example 140, 4-[[3-(2,3-difluoro-4-methoxy-phenyl)imidazo[1,2-a]pyrazin-8-yl]amino]-2-ethyl-N-[[1-methyl-1-(3-pyridylmethyl)piperidin-1-ium-4-yl]methyl]benzamide; 2,2,2-trifluoroacetate] | 115 |
